Measured values from patent publication US20100069366A1, “ANTIBACTERIAL QUINOLINE DERIVATIVES” (JANSSEN-CILAG, priority 2006, published 2010).
Converted amounts (≈) assume the structure as drawn. Where two headings read alike, the source gives them in different places.

What was measured:
Type in all cases: cell-based
[1] = system: M. Smegmatis ATCC607; assay: In-vitro anti-bacterial activity against strain M. smegmatis ATCC607; details: for IC90: Mycolicibacterium smegmatis
Procedure: Flat-bottom, sterile 96-well plastic microtiter plates were filled with 180 μl of sterile deionized water, supplemented with 0.25% BSA. Subsequently, stock solutions (7.8× final test concentration) of compounds were added in 45 μl volumes to a series of duplicate wells in column 2 so as to allow evaluation of their effects on bacterial growth. Serial five-fold dilutions (45 μl in 180 μl) were made directly in the microtiter plates from column 2 to 11 using a customised robot system (Zymark Corp., Hopkinton, Mass.). Pipette tips were changed after every 3 dilutions to minimize pipetting errors with high hydrophobic compounds. Untreated control samples with (column 1) and without (column 12) inoculum were included in each microtiter plate. Approximately 250 CFU per well of bacteria inoculum, in a volume of 100 μl in 2.8× Mueller-Hinton broth medium, was added to the rows A to H, except column 12. The same volume of broth medium without inoculum was added to column 12 in row A to H. The cultures were incubated at 37° C. for 48 hours in a humidified 5% CO2 atmosphere (incubator with open air valve and continuous ventilation). At the end of incubation, two days after inoculation, the bacterial growth was quantitated fluorometrically. Therefore Alamar Blue (10×) was added to all wells in a volume of 20 μl and plates were incubated for another 2 hours at […]
The fluorescence was read in a computer-controlled fluorometer (Cytofluor, Biosearch) at an excitation wavelength of 530 nm and an emission wavelength of 590 nm (gain 30).

[2] = system: Staphylococcus aureus (ATCC29213); assay: Microtitre plate assay, IC90 determination, STA 29213
Procedure: (§1) The bacteria used in this study were grown overnight in flasks containing 100 ml Mueller-Hinton Broth (Becton Dickinson—cat. no. 275730) in sterile de-ionized water, with shaking, at 37° C. Stocks (0.5 ml/tube) were stored at −70° C. until use. Bacteria titrations were performed in microtiter plates to detect the TCID50, in which the TCID50 represents the dilution that gives rise to bacterial growth in 50% of inoculated cultures.
(§2) In general, an inoculum level of approximately 100 TCID50 was used for susceptibility testing.
(§3) Flat-bottom, sterile 96-well plastic microtiter plates were filled with 180 μl of sterile deionized water, supplemented with 0.25% BSA. Subsequently, stock solutions (7.8× final test concentration) of compounds were added in 45 μl volumes in column 2 Serial five-fold dilutions (45 μl in […]) were made directly in the microtiter plates from column 2 to reach column 11. Untreated control samples with (column 1) and without (column 12) inoculum were included in each microtiter plate. Depending on the bacteria type, approximately 10 to 60 CFU per well of bacteria inoculum (100 TCID50), in a volume of 100 μl in 2.8× Mueller-Hinton broth medium, was added to the rows A to H, except column 12. The same volume of broth medium without inoculum was added to column 12 in row A to H. The cultures were incubated at 37° C. for 24 hours under a normal atmosphere (incubator with open air valve and continuous ventilation). At the end of incubation, one day after inoculation, the bacterial growth was quantitated fluorometrically. Therefore resazurin (0.6 mg/ml) was added in a volume of 20 μl to all wells 3 hours after inoculation, and the plates were re-incubated overnight. A change in colour from blue to pink indicated the growth of bacteria. The fluorescence was read in a computer-controlled fluorometer (Cytofluor Biosearch) at an excitation wavelength of 530 nm and an emission wavelength of 590 nm. The % growth inhibition achieved by the compounds was calculated according to standard methods.

[3] = system: Streptococcus pneumoniae (ATCC6305); assay: Microtitre plate assay, IC90 determination, SPN 6305; details: 90% inhibitory concentration for bacterial growth, resazurin
Procedure: as §1, §2, §3

[4] = system: Enterococcus faecalis (ATCC29212); assay: Microtitre plate assay, IC90 determination, EFA 29212; details: for IC90: Enterococcus faecalis, ATCC29212, read-out: IC90 (μg/ml) EFA 29212
Procedure: as §1, §2, §3

[5] = system: Streptococcus pyogens (ATCC8668); assay: Microtitre plate assay, IC90 determination, SPY 8668; details: for IC90: Streptococcus, ATCC8668, read-out: IC90 (μg/ml) SPY 8668
Procedure: as §1, §2, §3

[6] = system: Pseudomonas aeruginosa (ATCC27853); assay: Microtitre plate assay, IC90 determination, PAE 27853; details: for IC90: Pseudomonas aeruginosa, ATCC27853, read-out: IC90 (μg/ml) PAE 27853
Procedure: as §1, §2, §3

[7] = system: Staphylococcus aureus (ATCC25923); assay: Microtitre plate assay, IC90 determination, STA 25923; details: Staphylococcus aureus, ATCC25923, read-out: IC90 (μg/ml) STA 25923
Procedure: as §1, §2, §3

[8] = 90% inhibitory concentration for bacterial growth, 48 hours, Alamar Blue fluorescence
[9] = Staphylococcus aureus ATCC29213, 90% inhibitory concentration for bacterial growth, resazurin
[10] = Streptococcus pneumoniae ATCC6305
[11] = ATCC607, 48 h, read-out: M. smegmatis IC90 (μg/ml), 90% inhibitory concentration for bacterial growth, Alamar Blue fluorescence
[12] = Staphylococcus aureus, ATCC29213, read-out: IC90 (μg/ml) STA 29213
[13] = Streptococcus pneumoniae, ATCC6305, read-out: IC90 (μg/ml) SPN 6305, Streptococcus pneumoniae ATCC6305
[14] = ATCC607, 90% inhibitory concentration for bacterial growth, 48 hours, Alamar Blue fluorescence, read-out: M. smegmatis IC90
[15] = Staphylococcus aureus ATCC29213, 90% inhibitory concentration for bacterial growth, resazurin, read-out: IC90 (μg/ml) STA 29213
[16] = Streptococcus pneumoniae ATCC6305, read-out: IC90 (μg/ml) SPN 6305

Row | SMILES | M. smegmatis IC90 [1, 8] | IC90 (μg/ml) STA 29213 [2, 9] | IC90 (μg/ml) SPN 6305 [3, 10] | IC90 [1, 11] | IC90 [2, 12] | IC90 [3, 13] | other results
1 | COc1nc2ccc(-c3cc4ccccc4s3)cc2cc1C(C(=CCN(C)C)c1cccc(F)c1)c1ccccc1 (racemic) [Compound 33] | 7.03 µg/mL | 8.86 µg/mL (≈ 15.9 µM) | 7.89 µg/mL (≈ 14.1 µM) |  |  |  | 
2 | COc1nc2ccc(Br)cc2cc1C(=C(CCN1CCN(C)CC1)c1ccccc1)c1ccccc1 (mixture of isomers) [Compound 44] | 4.31 µg/mL | 10.82 µg/mL | 10.82 µg/mL |  |  |  | 
3 | CSc1nc2ccc(Br)cc2cc1C(/C(=C/CN(C)C)c1ccccc1)c1ccccc1 (stereo not drawn) [Compound 4] |  |  |  | 7.98 µg/mL (≈ 15.8 µM) | 40 µg/mL (≈ 79.4 µM) | 17.9 µg/mL (≈ 35.5 µM) | 
4 | COc1nc2ccc(Br)cc2cc1C(C(=CCN(C)C)c1cccc(F)c1)c1ccccc1 (racemic) [Compound 25] | 40.15 µg/mL | 22.58 µg/mL (≈ 44.7 µM) | 8.01 µg/mL (≈ 15.8 µM) |  |  |  | IC90 (μg/ml) EFA 29212 ([4]; Enterococcus faecalis ATCC29212, 90% inhibitory concentration for bacterial growth, resazurin): 40.15 µg/mL (≈ 79.4 µM); IC90 (μg/ml) SPY 8668 ([5]; Streptococcus pyogens ATCC8668, 90% inhibitory concentration for bacterial growth, resazurin): 17.93 µg/mL (≈ 35.5 µM); IC90 (μg/ml) PAE 27853 ([6]; Pseudomonas aeruginosa ATCC27853, 90% inhibitory concentration for bacterial growth, resazurin): 40.15 µg/mL (≈ 79.4 µM)
5 | CCN(C)CCC/C=C(\CCc1ccccc1)C(c1ccccc1)c1cc2cc(Br)ccc2nc1OC (stereo not drawn) [Compound 61] |  |  |  |  |  |  | IC90 [1, 14]: 1.76 µg/mL (≈ 3.16 µM); IC90 [2, 15]: 1.76 µg/mL (≈ 3.16 µM); IC90 [3, 16]: 1.76 µg/mL (≈ 3.16 µM)
6 | COc1nc2ccc(-c3ccco3)cc2cc1/C(=C(/CCN(C)C)c1cccc2ccccc12)c1ccccc1 [Compound 22] |  |  |  | 1.66 µg/mL (≈ 3.16 µM) | 20.9 µg/mL (≈ 39.8 µM) | 20.9 µg/mL (≈ 39.8 µM) | 
7 | COc1nc2ccc(-c3ccccc3)cc2cc1C(/C(=C/CN(C)C)c1ccccc1)c1ccccc1 (stereo not drawn) [Compound 11] |  |  |  | 1.53 µg/mL (≈ 3.16 µM) | 1.53 µg/mL (≈ 3.16 µM) | 1.22 µg/mL (≈ 2.52 µM) | IC90 [4]: 15.3 µg/mL (≈ 31.6 µM); IC90 [5]: 7.68 µg/mL (≈ 15.8 µM); IC90 [6]: 7.68 µg/mL (≈ 15.8 µM)
8 | COc1ccc(/C(CCCCN2CCCCC2)=C(/c2ccccc2)c2cnc3ccccc3c2)cc1 [Compound 51] |  |  |  |  |  |  | IC90 [1, 14]: 7.55 µg/mL (≈ 15.8 µM); IC90 [2, 15]: 47.7 µg/mL (≈ 100 µM); IC90 [3, 16]: 21.3 µg/mL (≈ 44.7 µM)
9 | COc1nc2ccc(Br)cc2cc1C(=C(CCn1ccnc1)c1ccccc1)c1ccccc1 (single isomer, unassigned) [Compound 6] | 10.18 µg/mL | 10.18 µg/mL (≈ 19.9 µM) | 10.18 µg/mL (≈ 19.9 µM) |  |  |  | 
10 | COc1nc2ccc(Br)cc2cc1C(/C(=C/CN(C)C)CCc1ccccc1)c1ccccc1 (stereo not drawn) [Compound 13] |  |  |  | 1.73 µg/mL (≈ 3.36 µM) |  | 8.67 µg/mL (≈ 16.8 µM) | IC90 [4]: 12.2 µg/mL (≈ 23.7 µM); IC90 [5]: 9.73 µg/mL (≈ 18.9 µM); IC90 [6]: 12.2 µg/mL (≈ 23.7 µM); IC90 [7]: 10.9 µg/mL (≈ 21.2 µM)
